According to US10131659B2, “Iodonium analogs as inhibitors of NADPH oxidases and other flavin dehydrogenases; formulations thereof; and uses thereof” (priority 2014, dated 2018):
Read-outs that look alike come from different tables or passages of the source.

How the values were obtained:
NOX1/A1/O1 = molecular target: T1, NOX1/A1/O1 (Homo sapiens, UniProt Q9Y5S8); test: NOX1-dependent ROS production, luminescence assay for O2.- in HEK293 cells expressing the NOX1 complex; format: cell-based; conditions: for IC50 / IC50 toward NOX1: exposure for 30 min
T1 construct: expressed in transfected cells; host or cells: HEK293

NOX2 = molecular target: T2, NOX2 (Homo sapiens, UniProt P04839); test: NOX2-dependent ROS production, luminescence assay for O2.- in differentiated HL-60 cells; format: cell-based; conditions: exposure for 30 min
T2 construct: fully differentiated HL-60 cells expressing active NOX2; endogenous in cells; host or cells: differentiated HL-60

NOX4 = molecular target: T3, NOX4 (Homo sapiens, UniProt Q9NPH5); test: NOX4-dependent H2O2 production, Amplex Red assay in reconstituted HEK293 cells; format: cell-based; conditions: for IC50 / IC50 toward NOX4: exposure for 30 min
T3 construct: expressed in transfected cells; host or cells: HEK293
T3 sequence (Q9NPH5 1-578): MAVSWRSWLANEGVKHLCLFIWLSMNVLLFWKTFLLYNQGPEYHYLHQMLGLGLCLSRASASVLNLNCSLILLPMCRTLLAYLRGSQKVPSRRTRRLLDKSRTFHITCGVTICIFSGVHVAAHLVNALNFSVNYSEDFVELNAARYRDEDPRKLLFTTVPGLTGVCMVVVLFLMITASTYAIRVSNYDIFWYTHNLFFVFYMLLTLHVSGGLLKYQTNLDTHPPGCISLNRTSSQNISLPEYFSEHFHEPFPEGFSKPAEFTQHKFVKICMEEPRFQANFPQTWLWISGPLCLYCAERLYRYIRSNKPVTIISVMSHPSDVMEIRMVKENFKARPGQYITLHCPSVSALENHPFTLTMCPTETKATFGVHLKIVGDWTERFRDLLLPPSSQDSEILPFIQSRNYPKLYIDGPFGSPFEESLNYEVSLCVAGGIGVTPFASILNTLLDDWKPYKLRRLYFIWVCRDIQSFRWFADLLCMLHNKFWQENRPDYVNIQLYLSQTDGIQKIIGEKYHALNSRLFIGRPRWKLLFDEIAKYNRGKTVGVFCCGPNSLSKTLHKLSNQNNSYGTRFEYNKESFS
T3 sequence (P13498 2-195 partner limits assumed): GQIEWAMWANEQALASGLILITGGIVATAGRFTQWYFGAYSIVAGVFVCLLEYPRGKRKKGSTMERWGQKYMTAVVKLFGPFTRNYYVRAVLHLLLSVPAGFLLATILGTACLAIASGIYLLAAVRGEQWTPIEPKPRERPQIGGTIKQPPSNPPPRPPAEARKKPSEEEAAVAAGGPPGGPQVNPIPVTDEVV
Procedure: (§1) H2O2 was measured by Amplex Red assay to determine NOX4 or Duox2 activity in fully reconstituted HEK293 cells. The method conducted was similar to the approach disclosed in Jaquet et al in Brit J. Pharmacology 164: 507-520, 2011 using somewhat different cell models for the NOX isoforms and we studied Duox2 in our own cell model.

NOX5 = molecular target: T4, NOX5 (Homo sapiens, UniProt Q96PH1); test: NOX5-dependent ROS production, luminescence assay for O2.- in UACC257 melanoma cells; format: cell-based; conditions: exposure for 30 min
T4 sequence (Q96PH1 1-765): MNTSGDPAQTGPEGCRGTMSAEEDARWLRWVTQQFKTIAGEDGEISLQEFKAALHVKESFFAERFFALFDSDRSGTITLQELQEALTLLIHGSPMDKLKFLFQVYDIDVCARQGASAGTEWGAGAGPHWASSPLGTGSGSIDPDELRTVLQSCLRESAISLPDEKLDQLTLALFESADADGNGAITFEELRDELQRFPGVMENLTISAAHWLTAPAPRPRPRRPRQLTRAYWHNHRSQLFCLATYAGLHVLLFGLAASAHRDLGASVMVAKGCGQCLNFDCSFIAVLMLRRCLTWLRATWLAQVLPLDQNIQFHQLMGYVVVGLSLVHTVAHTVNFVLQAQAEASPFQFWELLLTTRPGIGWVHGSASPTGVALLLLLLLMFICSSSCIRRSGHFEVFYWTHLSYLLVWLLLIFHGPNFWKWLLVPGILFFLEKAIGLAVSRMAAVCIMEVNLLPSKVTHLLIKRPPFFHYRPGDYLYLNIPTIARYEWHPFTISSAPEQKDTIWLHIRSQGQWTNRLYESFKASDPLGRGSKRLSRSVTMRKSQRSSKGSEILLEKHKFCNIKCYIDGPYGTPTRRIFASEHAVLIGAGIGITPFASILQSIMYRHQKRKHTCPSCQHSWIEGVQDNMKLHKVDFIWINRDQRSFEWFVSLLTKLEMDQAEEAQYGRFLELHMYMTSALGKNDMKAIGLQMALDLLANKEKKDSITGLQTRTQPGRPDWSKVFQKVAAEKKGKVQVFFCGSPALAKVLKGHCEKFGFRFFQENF

[1] = system: HT-29 human colon cancer cells; test: Clonogenic assay, HT-29 cells; format: cell-based
Procedure: Several iodonium analog compounds were analyzed for inhibition of HT-29 growth using a clonogenic assay performed as described in Doroshow et al Biochem. Biophys. Res. Commun. 135: 330-335, 1986.

[2] = system: NOX1, NOX2, NOX4, NOX5, and DUOX2; test: Screening for NADPH oxidase isoform specificity in cellular models (all isoforms); format: cell-based, human
Procedure: as §1, with “To evaluate compound specificity, a luminescence assay for O2.^− was used with HEK293 cells expressing all components of the NOX1 complex; fully differentiated HL-60 cells expressing active NOX2; and UACC257 melanoma cells that exclusively express active NOX5. H2O2” for “H2O2”

[3] = system: HT-29 human colon cancer cells; test: Growth inhibition of HT-29 cells by MTT assay; format: cell-based; conditions: for IC50: read-out: IC50, HT-29 human colon cancer cell growth
Procedure: The compounds were analyzed for growth inhibition of HT-29 human colon cancer cells by MTT assay: 48 hr, drug exposures over several orders of concentration. The MTT assay was performed as described in Wu et al J. Immunology 190: 1859-1872, 2013.

[4] = system: ROS production in HT-29 human colon cancer cells; test: ROS production in HT-29 cells (chemiluminescence / DCF analytical cytometry); format: cell-based
DUOX2/A2 = DUOX2/A2 (Homo sapiens, UniProt Q9NRD8); test: DUOX2-dependent H2O2 production, Amplex Red assay in reconstituted HEK293 cells; format: cell-based
Procedure: as §1

[5] = system: HT-29 human colon cancer cells; test: HT-29 cell cycle progression; format: cell-based; conditions: for G1 (%) / G2 (%) / S phase (%): 24 hours
Procedure: Several iodonium analog compounds were analyzed for effect on HT-29 cell cycle progression.

NOX1 mRNA expression = test: NOX1 expression in HT-29 cells by quantitative RT-PCR; format: cell-based; conditions: HT-29 human colon cancer cells
[6] = 3-5 independent experiments, read-out: IC50 ± SE, NOX1/A1/O1 HEK 293
[7] = 3-5 independent experiments, read-out: IC50 ± SE, NOX2 HL-60
[8] = 3-5 independent experiments, read-out: IC50 ± SE, NOX4 HEK293
[9] = 3-5 independent experiments, read-out: IC50 ± SE, NOX5 UACC-257
[10] = 3-5 independent experiments, read-out: IC50 ± SE, DUOX2/A2 HEK 293
[11] = Homo sapiens, HT-29, 6 h, read-out: IC50 (±SE) clonogenic survival, 6 hrs drug exposure, 6 hrs exposure
[12] = Homo sapiens, HT-29, 2 h, read-out: IC50 (±SE) clonogenic survival, 2 hrs drug exposure, 2 hrs exposure
[13] = Homo sapiens, HT-29, 240 h, read-out: IC50 clonogenic survival, 10 days drug exposure, 10 days exposure

Chain of DUOX2/A2 (Q9NRD8 26-1548): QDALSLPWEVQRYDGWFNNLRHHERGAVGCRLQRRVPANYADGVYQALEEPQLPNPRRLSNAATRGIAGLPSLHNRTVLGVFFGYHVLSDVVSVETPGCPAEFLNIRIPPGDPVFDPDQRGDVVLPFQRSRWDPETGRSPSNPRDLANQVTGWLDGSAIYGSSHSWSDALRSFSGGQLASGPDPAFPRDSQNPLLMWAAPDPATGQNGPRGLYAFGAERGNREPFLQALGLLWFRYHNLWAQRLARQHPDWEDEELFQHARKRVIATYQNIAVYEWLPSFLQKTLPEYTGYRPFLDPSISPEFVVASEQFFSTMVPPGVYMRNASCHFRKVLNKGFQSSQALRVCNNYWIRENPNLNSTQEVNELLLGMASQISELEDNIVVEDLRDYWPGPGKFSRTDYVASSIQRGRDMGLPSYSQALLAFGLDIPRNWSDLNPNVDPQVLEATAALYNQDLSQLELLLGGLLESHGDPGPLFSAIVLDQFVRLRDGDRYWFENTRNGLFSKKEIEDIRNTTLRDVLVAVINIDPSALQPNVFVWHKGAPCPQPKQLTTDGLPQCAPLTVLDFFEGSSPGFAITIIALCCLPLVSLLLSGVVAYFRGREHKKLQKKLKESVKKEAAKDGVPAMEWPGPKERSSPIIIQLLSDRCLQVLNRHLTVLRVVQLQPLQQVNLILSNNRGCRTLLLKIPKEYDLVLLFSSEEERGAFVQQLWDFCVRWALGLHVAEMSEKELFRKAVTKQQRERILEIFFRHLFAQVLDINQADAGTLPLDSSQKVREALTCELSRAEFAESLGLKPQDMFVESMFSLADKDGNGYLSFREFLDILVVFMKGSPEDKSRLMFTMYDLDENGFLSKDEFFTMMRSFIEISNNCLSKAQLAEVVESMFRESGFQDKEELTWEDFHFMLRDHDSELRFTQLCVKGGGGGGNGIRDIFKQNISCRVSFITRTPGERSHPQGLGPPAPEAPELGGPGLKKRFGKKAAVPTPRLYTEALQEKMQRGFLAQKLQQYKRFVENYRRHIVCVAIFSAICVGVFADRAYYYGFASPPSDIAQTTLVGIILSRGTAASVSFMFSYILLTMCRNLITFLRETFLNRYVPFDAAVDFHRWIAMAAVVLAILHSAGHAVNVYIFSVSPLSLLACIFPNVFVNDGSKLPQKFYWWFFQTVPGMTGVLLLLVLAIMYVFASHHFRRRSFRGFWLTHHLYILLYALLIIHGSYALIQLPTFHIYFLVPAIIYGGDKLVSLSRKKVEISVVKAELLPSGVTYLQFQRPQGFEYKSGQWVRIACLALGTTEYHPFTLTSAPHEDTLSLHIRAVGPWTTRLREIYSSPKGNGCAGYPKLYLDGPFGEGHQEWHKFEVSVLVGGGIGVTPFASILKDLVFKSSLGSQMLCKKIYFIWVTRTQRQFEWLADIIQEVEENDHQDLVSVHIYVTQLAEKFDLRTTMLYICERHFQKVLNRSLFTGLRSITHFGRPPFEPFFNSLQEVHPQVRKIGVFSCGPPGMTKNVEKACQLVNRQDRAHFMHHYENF
Chain of DUOX2/A2 (Q1HG44 whole entry partner): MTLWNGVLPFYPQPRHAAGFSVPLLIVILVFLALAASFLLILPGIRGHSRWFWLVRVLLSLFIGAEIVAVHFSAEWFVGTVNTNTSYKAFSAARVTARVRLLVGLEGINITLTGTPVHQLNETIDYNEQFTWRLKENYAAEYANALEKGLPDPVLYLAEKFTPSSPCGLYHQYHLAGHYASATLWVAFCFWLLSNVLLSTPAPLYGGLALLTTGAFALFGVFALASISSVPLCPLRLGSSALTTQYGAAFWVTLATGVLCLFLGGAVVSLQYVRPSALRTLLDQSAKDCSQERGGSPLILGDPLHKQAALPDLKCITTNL

| SMILES | IC50 (NOX1/A1/O1; [6]) | IC50 (NOX2; [7]) | IC50 (NOX4; [8]) | IC50 (NOX5; [9]) | IC50 toward NOX1 (NOX1/A1/O1) | IC50 toward NOX2 (NOX2) | IC50 toward NOX4 (NOX4) | IC50 toward NOX5 (NOX5) | IC50 (DUOX2/A2; [10]) | IC50 [1, 11] | IC50 ([3]; Homo sapiens, HT-29, 48 h) | other results |
| --- | --- | --- | --- | --- | --- | --- | --- | --- | --- | --- | --- | --- |
| O=S(=O)([O-])C(F)(F)F.c1csc([I+]c2cccs2)c1 [Compound 3, di-2-thienyliodonium triflate] | 2220 ± 1210 nM | 1490 ± 646 nM | 29700 ± 41500 nM | 1200 ± 1120 nM |  |  |  |  |  |  |  | IC50 clonogenic survival, 2 hrs drug exposure (result in words) ([1]; 2 hrs exposure): No Inhibition; IC50 ([1]; Homo sapiens, HT-29, read-out: IC50 (±SE) clonogenic survival, 6 hrs drug exposure, 6 hrs exposure): 91200 ± 58800 nM; potency compared with parent molecule (DTI) [2]: more potent than its parent molecule |
| COC(=O)c1ccc2c(c1)[I+]c1ccccc1-2.Cc1ccc(S(=O)(=O)[O-])cc1 [Compound 21, Dibenz[b,d]iodolium, 3-(methoxycarbonyl)-, salt with 4-methyl-benzenesulfonic acid (1:1)] | 249 ± 116 nM | 71 ± 15 nM | 127 ± 110 nM | 55 ± 20 nM | low nM | low nM | low nM | low nM | 1990 ± 1690 nM |  |  | IC50 ([3]; 48 hr drug exposure): 148 nM; ROS production in HT-29 cells ([4]; treatment for 24 hr with 10 nM): significantly decreased; potency as inhibitor of NOX4 compared with DPI (NOX4): more potent; IC50 ([1]; read-out: IC50 (±SE) clonogenic survival, 2 hrs drug exposure, 2 hrs exposure): ~7000 nM; IC50 ([1]; read-out: IC50 (±SE) clonogenic survival, 6 hrs drug exposure, 6 hrs exposure): 1300 ± 300 nM |
| O=[N+]([O-])c1cccc2c1-c1c(cccc1[N+](=O)[O-])[I+]2.[Br-] [Compound 49, 1,9-dinitrodibenzo[b,d]iodolium bromide] |  |  |  |  | much higher | much higher | much higher | submicromolar |  |  |  | Growth inhibition of NOX1-containing colon cancer cells versus the other analogs ([3]; even at higher concentrations): much less; IC50 (NOX1/A1/O1; IC50 ± SE, NOX1/A1/O1 HEK 293, 3-5 independent experiments): 1020 ± 361 nM; IC50 (NOX2; IC50 ± SE, NOX2 HL-60, 3-5 independent experiments): 1470 ± 308 nM; IC50 (NOX4; IC50 ± SE, NOX4 HEK293, 3-5 independent experiments): 5530 ± 2680 nM; IC50 (NOX5; IC50 ± SE, NOX5 UACC-257, 3-5 independent experiments): 229 ± 123 nM; IC50 (DUOX2/A2): 773 ± 362 nM; inhibition of DUOX2, as worded in text (DUOX2/A2): submicromolar; potency for inhibition of DUOX2 compared with parent compound (DPI) (DUOX2/A2): at least a log more potent |
| [Cl-].c1csc([I+]c2cccs2)c1 [Compound 1, di-2-thienyliodonium chloride, reference compound] | 3410 ± 1600 nM | 1500 ± 1110 nM | 32300 ± 13800 nM | 3780 ± 2140 nM |  |  |  |  |  | 113000 ± 92300 nM |  | IC50 clonogenic survival, 2 hrs drug exposure (result in words) ([1]; 2 hrs exposure): No Inhibition |
| Brc1ccc2c(c1)[I+]c1cc(Br)ccc1-2.[Br-] [Compound 16, Dibenziodolium, 3,7-dibromo-, bromide] | 70 ± 57 nM | 127 ± 20 nM | 161 ± 153 nM | 44 ± 21 nM | low nM | low nM | low nM | low nM | 4140 ± 1720 nM | 536 ± 635 nM | 50 nM | ROS production in HT-29 cells ([4]; treatment for 24 hr with 10 nM): significantly decreased; potency as inhibitor of NOX1 compared with DPI (NOX1/A1/O1): more potent; exposure required to inhibit growth / cell reproduction [1]: intermediate; IC50 [1, 12]: 1200 ± 1100 nM; IC50 [1, 13]: < 10 nM; G1 (%) ([5]; 250 nM): 64.5%; G2 (%) ([5]; 250 nM): 7.9%; S phase (%) ([5]; 250 nM): 28.1%; G1 (%) ([5]; 500 nM): 57.2%; G2 (%) ([5]; 500 nM): 6.5%; S phase (%) ([5]; 500 nM): 36.2% |
| CN(C)Cc1ccc2c(c1)[I+]c1cc(CN(C)C)ccc1-2.[I-] [Compound 24, Dibenziodolium, 3,7-bis[(dimethylamino)methyl]-, iodide] | 2520 ± 2410 nM | 4380 ± 999 nM | 35400 ± 42700 nM | 2090 ± 903 nM |  |  |  |  |  |  | 87 nM | inhibition of ROS production ([4]; HT-29 human colon cancer cells): no significant inhibition; inhibition of NOX1 expression (NOX1 mRNA expression): no significant inhibition |
| O=[N+]([O-])c1ccc2c(c1)[I+]c1cc([N+](=O)[O-])ccc1-2.[Br-] [Compound 15, Dibenziodolium, 3,7-dinitro-, bromide] | 357 ± 268 nM | 310 ± 53 nM | 139 ± 143 nM | 208 ± 129 nM | low nM | low nM | low nM | low nM | 225 ± 24 nM | 116 ± 108 nM | 202 nM | ROS production in HT-29 cells ([4]; treatment for 24 hr with 100 nM): significantly decreased; potency for inhibition of DUOX2 compared with parent compound (DPI) (DUOX2/A2): at least a log more potent; cytotoxic or cytostatic character [1]: cytotoxic; exposure required to inhibit growth / cell reproduction [1]: only a short exposure at nM concentrations; IC50 [1, 12]: 180 ± 157 nM; IC50 [1, 13]: < 10 nM; effect on cell cycle progression [5]: major block in cell cycle progression in S and G2 phases; G1 (%) ([5]; 250 nM): 23.9%; G2 (%) ([5]; 250 nM): 47.4%; S phase (%) ([5]; 250 nM): 28.7%; G1 (%) ([5]; 500 nM): 16.6%; G2 (%) ([5]; 500 nM): 25.2%; S phase (%) ([5]; 500 nM): 58.2% |
